Molecules are shown by their SMILES. Where only a bound is given, the exact number is not on record here.

In one assay the test system is NF-κB. Kind of assay: NF-κB assay: THP1-NF-κB-LUC cells, LPS-stimulated secreted luciferase. The class given is cell-based. The settings on record: THP1-NF-κB-LUC cells, LPS-stimulated; read-out: IC50 (NF-κB assay). As to the method:
FIG. 1 contains line plots showing NF-κB activity of exemplified compounds. 25k THP1-NF-κB-LUC cells were dispensed into 384 well plate (per well). Cells were treated with compounds (2 μM and 0.2 μM) for 2 hours before addition of LPS (10 ng/mL) for 18 hours. Secreted luciferase activity were measured using quant-luc reagents (1 bag of luc reagent dilute to 40 mL, use 10 μL per well). Data were normalized to vehicle control and graphed. Structures of selected exemplified compounds are shown.
FIG. 2 contains heat charts showing NF-κB activity of exemplified compounds as a function of concentration. 25k THP1-NF-κB-LUC cells were dispensed into 384 well plate (per well). Cells were treated with compounds (with serial dilution) for 2 hours before addition of LPS (10 ng/ml) for 18 hours. Secreted luciferase activity were measured using quant-luc reagents (1 bag of luc reagent dilute to 40 mL, use 10 μL per well). Structures of selected exemplified compounds are shown.
25k THP1-NF-κB-LUC cells were dispensed into 384 well plate (per well). Cells were treated with compounds with various concentrations for 2 hours before addition of LPS (10 ng/mL) for 18 hours. Secreted luciferase activity were measured using quant-luc reagents (1 bag of luc reagent dilute to 40 mL, use 10 μL per well). Data were normalized to vehicle control and graphed. Compound IC50 towards inhibiting NF-κB were determined through Prism. Similarly, 10k human PBMCs cells were cultured in 384 well plate (per well). Cells were treated with compounds with various concentrations for 2 hours before addition of LPS (10 ng/ml) for 18 hours, and supernatants were collected and assayed for TNF ELISA. Compound IC50 towards inhibiting TNF release were determined through Prism. • Activity: “+”>10 μM, “++”>1 μM and <10 μM, “+++”>0.1 μM and <1 μM, “++++”<0.1 μM.
For the compound `CCCNC(=O)c1ccc2nc(-c3ccc(F)cc3)c(-c3ccc(F)cc3)nc2c1` [BC18415], the concentration for half-maximal inhibition (IC50) is < 100 nM.

For `CCCN1CCN(C(=O)c2ccc3nc(-c4ccccc4)c(-c4ccccc4)nc3c2)CC1` [BC18440], the IC50 was < 100 nM.

Regarding `CN(C)CCNC(=O)c1ccc2nc(-c3ccc(F)cc3)c(-c3ccc(F)cc3)nc2c1` [BC18480], the half-inhibitory concentration (IC50) is < 100 nM.

As for `Cc1cccc(-c2nc3ccc(C(=O)NCCN4CCN(C)CC4)cc3nc2-c2cccc(C)c2)c1` [BC18463], the IC50 was 1000 to 10000 nM.

Regarding `CCCS(=O)(=O)c1oc(-c2ccc(F)cc2)nc1S(=O)(=O)c1ccc(Cl)cc1` [BC18533], the IC50 is < 100 nM.

For `Cc1ccc(CNC(=O)c2ccc3nc(-c4ccc(C)cc4)c(-c4ccc(C)cc4)nc3c2)cc1` [BC18433], the IC50 was > 10000 nM.

`Cc1cccc(-c2nc3ccc(C(=O)NCCN4CCOCC4)cc3nc2-c2cccc(C)c2)c1` [BC18425]: the IC50 is 1000 to 10000 nM.

For `NC(=O)CSc1oc(-c2ccc(F)cc2)nc1S(=O)(=O)c1ccc(Cl)cc1` [BC18551], the IC50 was > 10000 nM.

Take `Cc1cccc(-c2nc3ccc(C(=O)NCc4ccc(Cl)cc4)cc3nc2-c2cccc(C)c2)c1` [BC18457]: the IC50 is > 10000 nM.

As to `CCCCCSc1oc(-c2ccc(F)cc2)nc1S(=O)(=O)c1ccccc1` [BC18538], the concentration for half-maximal inhibition (IC50) was > 10000 nM.

In the case of `CC1CCCCN1CCNC(=O)c1ccc2nc(-c3ccccc3)c(-c3ccccc3)nc2c1` (stereo not drawn) [BC18483], the IC50 is < 100 nM.

`CCN(CC)CCNC(=O)c1ccc2nc(-c3ccccc3)c(-c3ccccc3)nc2c1` [BC18428]: the IC50 is < 100 nM.

For `CSc1oc(-c2ccc(F)cc2)nc1S(=O)(=O)c1ccc(Br)cc1` [BC18552], the IC50 was > 10000 nM.

Regarding `CCCSc1oc(-c2ccccc2)nc1S(=O)(=O)c1ccc(F)cc1` [BC18567], the half-maximal inhibitory concentration (IC50) was > 10000 nM.

Turning to `CCCSc1oc(-c2ccc(C)cc2)nc1S(=O)(=O)c1ccc(Cl)cc1` [BC18558], the IC50 is > 10000 nM.

With `CC(C)CSc1oc(-c2ccccc2)nc1S(=O)(=O)c1ccc(Cl)cc1` [BC18579], the half-maximal inhibitory concentration (IC50) is 1000 to 10000 nM.

With `O=C(NCCCN1CCCC1=O)c1ccc2nc(-c3ccc(F)cc3)c(-c3ccc(F)cc3)nc2c1` [BC18459], the half-inhibitory concentration (IC50) is < 100 nM.

Consider `CCOCCCNC(=O)c1ccc2nc(-c3ccc(F)cc3)c(-c3ccc(F)cc3)nc2c1` [BC18404], for which the IC50 is < 100 nM.

With `CCCCSc1oc(-c2ccc(F)cc2)nc1S(=O)(=O)c1ccc(Cl)cc1` [BC18519], the IC50 is > 10000 nM.

Regarding `CC(C)Sc1oc(-c2ccc(F)cc2)nc1S(=O)(=O)c1ccc(Br)cc1` [BC18585], the IC50 was in the range of 1000 to 10000 nM.

Turning to `CSc1ccc(CNC(=O)c2ccc3nc(-c4ccc(F)cc4)c(-c4ccc(F)cc4)nc3c2)cc1` [BC18413], the IC50 fell in the range of 100 to 1000 nM.

`CCCCS(=O)(=O)c1oc(-c2ccc(F)cc2)nc1S(=O)(=O)c1ccc(Cl)cc1` [BC18544]: the IC50 lay in the range of 100 to 1000 nM.

Regarding `CN1CCN(CCNC(=O)c2ccc3nc(-c4ccc(F)cc4)c(-c4ccc(F)cc4)nc3c2)CC1` [BC18460], the IC50 is < 100 nM.

Take `CC(C)CSc1oc(-c2ccc(F)cc2)nc1S(=O)(=O)c1ccccc1` [BC18527]: the IC50 is 1000 to 10000 nM.

On to `CCCS(=O)(=O)c1oc(-c2ccc(F)cc2)nc1S(=O)(=O)c1ccccc1` [BC18520], for which the IC50 was < 100 nM.

As for `Cc1cccc(CNC(=O)c2ccc3nc(-c4ccccc4)c(-c4ccccc4)nc3c2)c1` [BC18445], the IC50 was in the range of 100 to 1000 nM.

Turning to `Cc1cccc(-c2nc3ccc(C(=O)NCc4ccc(F)cc4)cc3nc2-c2cccc(C)c2)c1` [BC18414], the IC50 was > 10000 nM.

For `CCNC(=O)c1ccc2nc(-c3ccc(F)cc3)c(-c3ccc(F)cc3)nc2c1` [BC18427], the IC50 was < 100 nM.

Regarding `O=C(NCc1ccccn1)c1ccc2nc(-c3ccccc3)c(-c3ccccc3)nc2c1` [BC18410], the IC50 was < 100 nM.

Take `CCSc1oc(-c2ccc(C)cc2)nc1S(=O)(=O)c1ccc(F)cc1` [BC18514]: the IC50 fell in the range of 1000 to 10000 nM.

On to `Cc1cccc(-c2nc3ccc(C(=O)NCCN(C)C)cc3nc2-c2cccc(C)c2)c1` [BC18484], for which the IC50 lay in the range of 1000 to 10000 nM.

For `O=S(=O)(Cc1ccc(F)cc1)c1oc(-c2ccccc2)nc1S(=O)(=O)c1ccccc1` [BC18523], the 50% inhibitory concentration (IC50) was > 10000 nM.

For `CCCCS(=O)(=O)c1oc(-c2ccc(F)cc2)nc1S(=O)(=O)c1ccc(C)cc1` [BC18509], the IC50 was < 100 nM.

`COc1ccc(-c2nc3ccc(C(=O)NCCN4CCOCC4)cc3nc2-c2ccc(OC)cc2)cc1` [BC18453]: the half-inhibitory concentration (IC50) lay in the range of 1000 to 10000 nM.

For `O=C(CSc1oc(-c2ccc(F)cc2)nc1S(=O)(=O)c1ccccc1)c1ccc(Cl)cc1` [BC18516], the IC50 is 1000 to 10000 nM.

`O=C(c1ccc2nc(-c3ccccc3)c(-c3ccccc3)nc2c1)N1CCOCC1` [BC18429]: the half-maximal inhibitory concentration (IC50) was < 100 nM.

On to `O=C(NCCCN1CCOCC1)c1ccc2nc(-c3ccc(F)cc3)c(-c3ccc(F)cc3)nc2c1` [BC18437], for which the IC50 is < 100 nM.

In the case of `CCCN(Cc1ccc(C)cc1)C(=O)c1ccc2nc(-c3ccccc3)c(-c3ccccc3)nc2c1` [BC18434], the IC50 was 100 to 1000 nM.

`CC(=O)CSc1oc(-c2ccccc2)nc1S(=O)(=O)c1ccc(Cl)cc1` [BC18501]: the half-inhibitory concentration (IC50) was > 10000 nM.

For the compound `O=C(NCc1cccnc1)c1ccc2nc(-c3ccccc3)c(-c3ccccc3)nc2c1` [BC18405], the IC50 was < 100 nM.

For `O=C(NCc1ccc(F)cc1)c1ccc2nc(-c3ccc(F)cc3)c(-c3ccc(F)cc3)nc2c1` [BC18420], the half-inhibitory concentration (IC50) was 100 to 1000 nM.

As for `Cc1ccc(S(=O)(=O)c2nc(-c3ccc(F)cc3)oc2SC(C)C)cc1` [BC18582], the IC50 was in the range of 1000 to 10000 nM.

In the case of `CSc1oc(-c2ccc(F)cc2)nc1S(=O)(=O)c1ccc(Cl)cc1` [BC18562], the IC50 was > 10000 nM.

`CSc1oc(-c2ccc(C)cc2)nc1S(=O)(=O)c1ccc(Cl)cc1` [BC18536]: the 50% inhibitory concentration (IC50) is > 10000 nM.

The same assay, now with this note: THP1-NF-κB-LUC cells; compounds 2 hours before LPS (10 ng/mL) for 18 hours; secreted luciferase; read-out: IC50 (NF-κB assay).
As to `COc1ccc2[nH]cc(S(=O)(=O)c3cc(Cl)cc(Cl)c3)c(=O)c2c1` [BC18308], the IC50 is > 10000 nM.

With `Cc1ccc(S(=O)(=O)c2cn(Cc3cccc(C)c3)c3ccc(F)cc3c2=O)cc1` [BC18328], the IC50 fell in the range of 1000 to 10000 nM.

Turning to `Cc1ccc(S(=O)(=O)c2cn(C)c3cc(F)c(F)cc3c2=O)cc1` [BC18324], the half-maximal inhibitory concentration (IC50) was > 10000 nM.

For the compound `COc1ccc(NS(=O)(=O)c2cc3c(cc2C)N(C)CCO3)cc1` [BC181319], the IC50 is > 10000 nM.

`CC(=O)N1CCOc2cc(S(=O)(=O)Nc3cccc(Cl)c3)c(C)cc21` [BC181350]: the IC50 lay within 1000 to 10000 nM.

For `Cc1ccc(NS(=O)(=O)c2cc3c(cc2Cl)NC(=O)CO3)cc1F` [BC181343], the IC50 was < 100 nM.

With `COc1cc(NS(=O)(=O)c2cc3c(cc2C)NC(=O)CO3)cc(OC)c1OC` [BC181324], the IC50 was > 10000 nM.

On to `Cc1ccc(S(=O)(=O)c2c[nH]c3ccc(F)cc3c2=O)cc1F` [BC18303], for which the IC50 was < 100 nM.

In the case of `CC(=O)N1CCOc2cc(S(=O)(=O)Nc3ccc(Br)c(C)c3)c(C)cc21` [BC181306], the IC50 is 1000 to 10000 nM.

Turning to `O=c1c(S(=O)(=O)c2cccc(F)c2)c[nH]c2c(F)cccc12` [BC18301], the IC50 was 1000 to 10000 nM.

For the compound `Cc1cc2c(cc1S(=O)(=O)Nc1cccc(Br)c1)OCC(=O)N2` [BC181321], the IC50 was < 100 nM.

As to `COc1cccc(NS(=O)(=O)c2cc3c(cc2C)N(C(C)=O)CCO3)c1` [BC181317], the IC50 is > 10000 nM.

For the compound `Cc1cc2c(cc1S(=O)(=O)Nc1cc(C(F)(F)F)cc(C(F)(F)F)c1)OCC(=O)N2` [BC181365], the IC50 is 1000 to 10000 nM.

Turning to `O=c1c(S(=O)(=O)c2cc(Cl)cc(Cl)c2)c[nH]c2ccc(Cl)cc12` [BC18304], the IC50 was in the range of 1000 to 10000 nM.

As for `COc1ccc(NS(=O)(=O)c2cc3c(cc2C)NC(=O)CO3)cc1` [BC181333], the IC50 was 1000 to 10000 nM.

As to `CCN(c1ccc(OC)cc1)S(=O)(=O)c1cc2c(cc1C)NC(=O)CO2` [BC181349], the IC50 was > 10000 nM.

As for `CCOc1ccc(NS(=O)(=O)c2cc3c(cc2C)N(C(C)=O)CCO3)cc1` [BC181340], the half-inhibitory concentration (IC50) was > 10000 nM.

For the compound `COc1ccc(NS(=O)(=O)c2cc3c(cc2C)N(C(C)=O)CCO3)c(OC)c1` [BC181382], the 50% inhibitory concentration (IC50) was > 10000 nM.

For the compound `Cc1cc2c(cc1S(=O)(=O)Nc1ccc(CC(F)(F)F)cc1)OCC(=O)N2` [BC181315], the IC50 is < 100 nM.

Regarding `Cc1cc2c(cc1S(=O)(=O)Nc1cccc(F)c1)OCC(=O)N2` [BC181377], the IC50 was < 100 nM.

Consider `Cc1ccc(NS(=O)(=O)c2cc3c(cc2C)NC(=O)CO3)cc1C` [BC181368], for which the half-maximal inhibitory concentration (IC50) lay within 1000 to 10000 nM.

For `Cc1cc2c(cc1S(=O)(=O)N(C)c1ccc(Br)cc1)OCC(=O)N2` [BC181316], the IC50 was > 10000 nM.

With `COc1ccc2cc(S(=O)(=O)c3ccc(C)c(Cl)c3)c(=O)oc2c1` [BC18316], the IC50 is > 10000 nM.

As to `COc1ccc(NS(=O)(=O)c2cc3c(cc2C)N(C(C)=O)CCO3)cc1` [BC181328], the IC50 was > 10000 nM.

Take `COc1cccc(NS(=O)(=O)c2cc3c(cc2C)N(C)CCO3)c1` [BC181308]: the half-maximal inhibitory concentration (IC50) is > 10000 nM.

As usually defined, the IC50 is the concentration that inhibits the measured activity by half.

Values taken from patent US12606528B2, “Methods and materials for inhibiting NF-kB activity” (University of Pittsburgh - Of the Commonwealth System of …, priority 2019, dated 2026).
